Test systems include HCT-15 colon; NCI-H522 lung; BT-549 breast; A549 NSCLC; K-562 leukemia; KM12 colon; M14 melanoma; HT29 colon; HL-60(TB) leukemia; HCC-2998 colon; SF-295 CNS; HOP-62 NSCLC; NCI-H23 lung; NCI/ADR-RES ovarian; SF-539 CNS; T-47D breast; PC-3 prostate; CAKI-1 renal; SK-MEL-2 melanoma.
Common to all, as to experiment: NCI-60 cell line screen, 48 h

Molecules are shown by their SMILES.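 Dose response: 5 concentrations. Exposure: 48 h. Format: 96-well plates. Endpoint: linear interpolation; highest concentration if not reached. TGI denotes the concentration required for complete inhibition of growth.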 Bounds are passed on as bounds.

For the molecule `CCn1c2ccccc2c2cc(NC(=O)c3c(NCCNCCO)nc(=O)[nH]c3C)ccc21`, the TGI in the test with HCT-15 colon, with NCI-H522 lung, with BT-549 breast, in the test on A549 NSCLC, with K-562 leukemia and in the test on KM12 colon was > 100 µM each time. Besides, the TGI in the test with M14 melanoma, with HT29 colon, with HL-60(TB) leukemia, in the test on HCC-2998 colon, in the test with SF-295 CNS and in the test on HOP-62 NSCLC was > 100 µM throughout. Besides, the TGI with NCI-H23 lung, in the test on NCI/ADR-RES ovarian, in the test on SF-539 CNS, in the test on T-47D breast, with PC-3 prostate and with CAKI-1 renal was > 100 µM throughout.
Turning to `COC(=O)[C@H](COC(=O)/C=C/c1ccc(OC(C)=O)c(OC(C)=O)c1)NC(=O)/C=C/c1ccc(OC(C)=O)c(OC(C)=O)c1`, the TGI with HCT-15 colon was 70.6 µM; with BT-549 breast it was 34.9 µM; with A549 NSCLC, > 100 µM; with K-562 leukemia it was > 100 µM; in the test on KM12 colon, 36.6 µM; in the test on M14 melanoma, 54.3 µM. Besides, the TGI in the test with HT29 colon is 54 µM; in the test on HL-60(TB) leukemia, > 100 µM; with HCC-2998 colon, 36.6 µM; in the test with HOP-62 NSCLC it was 34.3 µM; in the test with SK-MEL-2 melanoma, 35.2 µM; in the test on NCI-H23 lung, 47.6 µM. In addition, the TGI in the test on NCI/ADR-RES ovarian was > 100 µM; in the test on SF-539 CNS, > 100 µM; in the test with T-47D breast, 14.4 µM; in the test on PC-3 prostate, 31.2 µM; in the test on CAKI-1 renal, 35.1 µM.
Turning to `Cc1ccc(/C=N/NS(=O)(=O)c2ccc(/C=C3\NC(=O)NC3=O)cc2)cc1`, the TGI in the test on HCT-15 colon, in the test on BT-549 breast, in the test on A549 NSCLC, with K-562 leukemia, with KM12 colon and in the test with M14 melanoma was > 100 µM in each case. Besides, the TGI is > 100 µM with HT29 colon; > 100 µM in the test on HL-60(TB) leukemia; > 100 µM with HCC-2998 colon; > 100 µM with SF-295 CNS; 91.1 µM in the test on HOP-62 NSCLC; > 100 µM in the test on SK-MEL-2 melanoma. In addition, the TGI with NCI-H23 lung, with NCI/ADR-RES ovarian, in the test on T-47D breast, in the test on PC-3 prostate and in the test with CAKI-1 renal was > 100 µM throughout.
For the molecule `CCOP(=O)(OCC)C(F)(F)Cc1cnc(C)c2c1COC(C)(C)O2`, the TGI in the test with HCT-15 colon, in the test with BT-549 breast, in the test with A549 NSCLC, in the test with K-562 leukemia, in the test with KM12 colon and in the test on M14 melanoma was > 10 µM throughout. Further, the TGI in the test on HT29 colon, in the test with HL-60(TB) leukemia, with HCC-2998 colon, in the test on SF-295 CNS, in the test with HOP-62 NSCLC and in the test with SK-MEL-2 melanoma was > 10 µM throughout. The TGI in the test on NCI-H23 lung, with NCI/ADR-RES ovarian, with SF-539 CNS, in the test with T-47D breast, in the test with PC-3 prostate and with CAKI-1 renal was > 10 µM throughout.
As for `N#CC(c1ccccc1)N(CCOCCOCCN(C(=O)c1cccc2ccccc12)C(C#N)c1ccccc1)C(=O)c1cccc2ccccc12` (stereo not given), the TGI in the test on HCT-15 colon, in the test on BT-549 breast, in the test on A549 NSCLC, in the test on K-562 leukemia, in the test on KM12 colon and in the test with M14 melanoma was > 100 µM each time. Moreover, the TGI with HT29 colon, in the test with HL-60(TB) leukemia, in the test with HCC-2998 colon, in the test with SF-295 CNS, with SK-MEL-2 melanoma and in the test on NCI-H23 lung was > 100 µM in each case. Further, the TGI with NCI/ADR-RES ovarian, in the test on SF-539 CNS, with T-47D breast, in the test on PC-3 prostate and with CAKI-1 renal was > 100 µM in each case.
As for `COc1cc2c(cc1OC)C(=O)/C(=C/c1ccc([N+](=O)[O-])cc1)CC2`, the TGI in the test on HCT-15 colon, in the test with BT-549 breast, with A549 NSCLC, in the test on K-562 leukemia, with KM12 colon and with M14 melanoma was > 10 µM in each case. Also, the TGI in the test on HT29 colon, in the test on HL-60(TB) leukemia, in the test with HCC-2998 colon, in the test on SF-295 CNS, in the test with HOP-62 NSCLC and in the test with SK-MEL-2 melanoma was > 10 µM each time. Further, the TGI in the test on NCI-H23 lung, in the test on NCI/ADR-RES ovarian, in the test with SF-539 CNS, with T-47D breast, in the test with PC-3 prostate and in the test on CAKI-1 renal was > 10 µM throughout.

Values taken from PubChem BioAssay (NCI).
